Where two headings read alike, the source gives them in different places.
Assays:
[1] = target: T1, Trx-1/TrxR (Homo sapiens, UniProt P10599+Q16881); assay: Trx-1/TrxR-dependent insulin reducing assay; type: biochemical; settings: for IC50: calculated from 5 concentrations (0.1 to 50 μM)
T1 construct: Thioredoxin reductase was purified from human placenta as previously described; made in house
T1 sequence (P10599 1-105): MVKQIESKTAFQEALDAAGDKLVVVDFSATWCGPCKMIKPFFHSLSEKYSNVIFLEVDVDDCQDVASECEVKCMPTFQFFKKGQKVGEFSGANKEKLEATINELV
T1 sequence (Q16881 1-499 isoform Q16881-5): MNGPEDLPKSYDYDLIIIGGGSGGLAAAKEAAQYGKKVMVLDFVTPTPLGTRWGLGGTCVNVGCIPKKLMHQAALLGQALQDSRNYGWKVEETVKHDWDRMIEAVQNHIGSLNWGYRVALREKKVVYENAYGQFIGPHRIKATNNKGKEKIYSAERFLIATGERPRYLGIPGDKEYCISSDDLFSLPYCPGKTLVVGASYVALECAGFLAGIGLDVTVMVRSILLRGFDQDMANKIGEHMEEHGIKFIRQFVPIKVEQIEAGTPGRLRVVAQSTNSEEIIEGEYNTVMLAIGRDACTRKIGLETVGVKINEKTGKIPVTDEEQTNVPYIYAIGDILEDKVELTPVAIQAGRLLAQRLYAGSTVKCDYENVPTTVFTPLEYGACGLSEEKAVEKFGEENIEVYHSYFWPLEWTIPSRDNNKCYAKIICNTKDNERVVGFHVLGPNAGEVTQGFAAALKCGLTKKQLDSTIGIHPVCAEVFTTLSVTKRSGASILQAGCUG
Experimental: Thioredoxin reductase was purified from human placenta as previously described (Oblong, J.E.; Gasdaska, P.Y.; Sherrill, K.; Powis,G. Biochemistry 1993, 32, 7271) and recombinant human Trx-1 was prepared as previously described (Gasdaska, P.Y.; Oblong, J.E.; Cotgreave, I.A.; Powis,G. Biochem.Biophys.Acta 1994 ,1218 ,292). TrxR and Trx-1/TrxR activities were measured spectrophotometrically using previously published microtiter plate colorimetric assays, based on the increase in absorbance at 405 nm which occurs as dithionitrobenzoic acid (DTNB) is reduced by the enzyme-mediated transfer of reducing equivalents from NADPH (Gasdaska et al., Biochem.Biophys.Acta 1994 ,1218,292). Trx-1/TrxR-dependent insulin reducing activity was measured in an incubation with a final volume of 60 μL containing 100 mM HEPES buffer, pH 7.2,5 mM EDTA (HE buffer),1 mM NADPH, […],0.8 μM Trx-1 and 2.5 mg/mL bovine insulin. Incubations were for 30 min at 37 ° C. in flat-bottom 96-well microtiter plates. The reaction was stopped by the addition of 100 μL of 6 M guanidine-HC1, 50 mM Tris, pH 8.0, and 10 mM DTNB, and the absorbance measured to 405 nm. TrxR activity was measured in a final incubation volume of 60 μL containing HE buffer, 10 mM DTNB, 1.0 μM TrxR and 1 mM NADPH. Compounds were diluted in HE buffer and added to the wells as 20 μL aliquots, and TrxR was then added,also as 20 μL aliquots in HE buffer. To start the reaction NADPH and DTNB were added as a 20 μL aliquot in HE buffer and the plate was moved to the plate reader which had been preheated to 37 ° C. The optical density at 405 nm was measured every 10 s and initial reaction rates were measured.

[2] = system: MDA-MB-231 cells; assay: Antiproliferative assay, MDA-MB-231 cells; type: cell-based, human; settings: 72 hours; for IC50: read-out: MDA-MB-231 50% cell growth inhibition; for sensitivity of MDA-MB-231 cells, in words: FIG. 23 Panel B
Description: MDA-MB-231 cells, which were also derived from an adenocarcinoma of the breast, are less differentiated than the MCF-7 cells and fail to express functional p53 or estrogen receptors. This class of tumor cells contains important targets for new therapies, because loss of estrogen receptor expression is associated with poor patient prognosis. (Osborne, C. K. Breast Cane. Res. Treatm. 1998, 51, 227).
The inventors extrapolated to determine the IC50 for compounds with little cytotoxicity at 30,μM, the highest concentration tested. […] The enhanced sensitivity of MCF-7 to these compounds may be due to the expression of p53 in these cells.
Two compounds, 24 referred to herein as SR-4 and 27 referred to herein as SR-7, were examined in greater detail as to their effects on biological activity. The proliferation of MCF-7, MDA-MB-231 and SV40 transformed mouse embryonic fibroblasts was measured by a previously described colorimetric assay (Wipf P, Jung J-K, Rodriguez S, Lazo JS Synthesis and biological evaluation of Deoxypreussomerin A and Palmarumycin CP 1 and related naphthoquinone spiroketals. Tetrahedron 57:283-296, 2001 and Vogt A, Rice RL, Settineri CE, Yokokawa F, Yokokawa S, Wipf P and Lazo JS (1998) Disruption of insulin-like growth factor-I signaling and down-regulation of Cdc2 by SC-ααδ9, a novel small molecule antisignaling agent identified in a targeted array library. J Pharmacol Exptl Therap 287:806-813.). Briefly, the inventors seeded 4,000-6,000 cells per well in microtiter plates. Cells were allowed to attach overnight and treated with vehicle or compounds for 72 h, after which the medium was replaced with serum free medium containing 0.1% 3-[4,5-dimethylthiazol-2-yl]-2,5-diphenyl tetrazolium bromide. Plates were incubated for 3 hours in the dark and total cell number was determined by spectrophotometrically at 540 nm as previously described (Vogt A, Rice RL, Settineri CE, Yokokawa F, Yokokawa S, Wipf P and Lazo JS (1998) Disruption of insulin-like growth factor-1 signaling and down-regulation of Cdc2 by SC-ααδ9, a novel small molecule antisignaling agent identified in a targeted array library. J Pharmacol Exptl Therap 287:806-813.). […] Cells were maintained in RPMI 1640 medium containing 10% fetal bovine serum and the paclitaxel-resistant cells also contained 17 nM paclitaxel and 10 μM verapamil. Cells were plated (2,000/well) in 96-well plates and allowed to attach and grow for 72 hours (paclitaxel and verapamil were removed from resistant cell medium two weeks prior to this plating). They were then treated with 0.5% DMSO vehicle control or 0.08-10 μM compound. The number of cells was determined spectrophotometrically at 490 nm minus absorbance at 630 nm after exposure to 3-(4,5-dimethylthiazol-2-yl)-5-(3-carboxymethoxyphenyl)-2-(4-sulfophenyl)-2H-tetrazolium and N-methyldibenzopyurazine methyl sulfate.
Because of the potential importance of the tumor suppressor gene p53 and the estrogen receptor in controlling the cellular response to cytotoxic agents, the inventors also examined the sensitivity of MDA-MB-231 cells, which lack functional p53 and estrogen receptors. […] As might be expected, these p53 and estrogen receptor deficient cells were generally less sensitive to both natural products and analogs when compared to MCF-7 cells.

SMILES | IC50 [1] | IC50 ([2]; Homo sapiens, MDA-MB-231) | also measured
O=C1C=CC2(Oc3cccc4cccc(c34)O2)c2cccc(OCc3ccoc3)c21 [SR-10, 8-(furan-3-ylmethoxy)-1-oxo-1,4-dihydronaphthalene-4-spiro-2′-naphto [1′,8′-de][1′,3′] dioxin] | 23.2 µM | 2 µM | 
COc1cccc2c1C(=O)C=CC21OCCCO1 [TH-223] | 40.2 µM |  | Trx-1/TrxR inhibition, in words [1]: practically inactive; IC50 [2]: 5 µM
O=C1C=CC2(Oc3cccc4cccc(c34)O2)c2cccc(OCc3ccco3)c21 [SR-7, 8-(furan-2-ylmethoxy)-1-oxo-1,4-dihydronaphthalene-4-spiro-2′-naphto [1″,8″-de][1′,3′] dioxin] | > 50 µM | 2.5 µM | sensitivity of MDA-MB-231 cells, in words [2]: equally sensitive
O=C1C=CC2(Oc3cccc4cccc(c34)O2)c2cccc(OCc3cccnc3)c21 [SR-12, 8-(pyridin-3-ylmethoxy)-1-oxo-1,4-dihydronaphthalene-4-spiro-2′-naphto [1″,8″-de][1′,3′] dioxin] | > 50 µM | 1.4 µM | 
CC(C)=CCC/C(C)=C/COc1cccc2c1C(=O)C=CC21Oc2cccc3cccc(c23)O1 [SR-9, (E,E)-8-(3,7-diemthyl-octa-2,6-dienyloxy)-1-oxo-1,4-dihydronaphthalene-4-spiro-2′-naphtol [1″,8″-de][1′,3′] dioxin] | > 50 µM | 2 µM | 
O=C1C=CC2(OCCO2)c2cccc(O)c21 [TH-169] | 3.4 µM | 4.3 µM | Trx-1/TrxR inhibition, in words [1]: maintains significant activity; fold less active than palmarumycin CP1 on Trx-1/TrxR [1]: approximately 10 fold; selectivity for Trx-1 over TrxR [1]: approximately 2 fold
C=CCOc1cccc2c1C(=O)C=CC21Oc2cccc3cccc(c23)O1 [SR-14, 8-allyloxy-1-oxo-1,4-dihydronaphthalene-4-spiro-2′-naphto [1″,8″-de][1′,3′] dioxin] | 23.2 µM | 2.7 µM | 
COc1cccc(COc2cccc3c2C(=O)C=CC32Oc3cccc4cccc(c34)O2)c1 [SR-5, 8-(3-methoxy-benzyloxy)-1-oxo-1,4-dihydronaphthalene-4-spiro-2′-naphto [1″,8″-de][1′,3′] dioxin] | > 50 µM | 2.7 µM | 
O=C1C=CC2(Oc3cccc4cccc(c34)O2)c2cccc(OCc3ccncc3)c21 [SR-13, 8-(pyridin-4-ylmethoxy)-1-oxo-1,4-dihydronaphthalene-4-spiro-2′-naphtol [1″,8″-de][1′,3′] dioxin] | > 50 µM | 7.3 µM | 
O=C1C=CC2(Oc3cccc4cccc(c34)O2)c2cccc(OCCc3ccccc3)c21 [SR-6, 8-(2-phenyl-ethoxy)-1-oxo-1,4-dihydronaphthalene-4-spiro-2′-naphto [1″,8″-de][1′,3′] dioxin] | > 50 µM | 4.6 µM | 
O=C1C=CC2(Oc3cccc4cccc(c34)O2)c2cccc(OCc3ccccn3)c21 [SR-11, 8-(pyridin-2-ylmethoxy)-1-oxo-1,4-dihydronaphthalene-4-spiro-2′-naphto [1″,8″-de][1′,3′] dioxin] | 41.8 µM | 2.8 µM | 
C/C=C/COc1cccc2c1C(=O)C=CC21Oc2cccc3cccc(c23)O1 [SR-2, (E)-8-(but-2-enyloxy)-1-oxo-1,4-dihydronaphthalene-4-spiro-2′-naphto [1″,8″-de][1′,3′]dioxin] | > 50 µM | 2.9 µM | 
O=C1C=CC2(Oc3cccc4cccc(c34)O2)c2cccc(OC/C=C/c3ccccc3)c21 [SR-1, (E)-8-(3-phenyl-allyloxy)-1-oxo-1,4-dihydronaphthalene-4-spiro-2′-naphto[1″, 8″-de] [1′,3′] dioxin] | > 50 µM | 7.5 µM | 
O=C1C=CC2(Oc3cccc4cccc(c34)O2)c2cccc(O)c21 [palmarumycin CP1, 8-hydroxy-1-oxo-1,4-dihydronaphthalene-4-spiro-2′-naphtho[1″,8″-de] [1′,3′] dioxin, reference compound] | 0.35 µM | 2.4 µM | selectivity for Trx-1 over TrxR [1]: > 30 fold; sensitivity of MDA-MB-231 cells, in words [2]: equally sensitive
CCCCCCOc1cccc2c1C(=O)C=CC21Oc2cccc3cccc(c23)O1 [SR-3, 8-hexyloxy-1-oxo-1,4-dihydronaphthalene-4-spiro-2′-naphto [1″,8″-de] [1′,3′] dioxin] | > 50 µM | 13.6 µM | 
COc1ccc(COc2cccc3c2C(=O)C=CC32Oc3cccc4cccc(c34)O2)cc1 [TH-39, 8-(4-methoxy-benzyloxy)-1-oxo-1,4-dihydronaphthalene4-spiro-2-naphto [1,8-de][1, 3]dioxin] | > 50 µM | 2.2 µM | 

— patent US6673937B2, “Syntheses and methods of use of new antimitotic agents” (The University of Pittsburgh, priority 2000, dated 2004)
